Read-outs that look alike come from different tables or passages of the source.
Target: T1, β-secretase(BACE) (Homo sapiens, UniProt P56817)
T1 construct: purchased Panvera
Test: BACE FS1% Inhibition Assay
Assay type: biochemical
Details: FS1 substrate
How it was run: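 Human BACE (4 μg/mL working solution) preincubated 20 min at room temperature with compound, then FS1 substrate (300 μg/mL working solution) added and incubated 1 h at room temperature. Percent inhibition calculated at each compound concentration against blank and vehicle controls.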

[1] = 0.3 μM test compound, read-out: % Inhibition (FS)
[2] = 1 μM test compound, read-out: % Inhibition (FS)
[3] = 3 μM test compound, read-out: % Inhibition (FS)

T1 sequence (P56817 46-501): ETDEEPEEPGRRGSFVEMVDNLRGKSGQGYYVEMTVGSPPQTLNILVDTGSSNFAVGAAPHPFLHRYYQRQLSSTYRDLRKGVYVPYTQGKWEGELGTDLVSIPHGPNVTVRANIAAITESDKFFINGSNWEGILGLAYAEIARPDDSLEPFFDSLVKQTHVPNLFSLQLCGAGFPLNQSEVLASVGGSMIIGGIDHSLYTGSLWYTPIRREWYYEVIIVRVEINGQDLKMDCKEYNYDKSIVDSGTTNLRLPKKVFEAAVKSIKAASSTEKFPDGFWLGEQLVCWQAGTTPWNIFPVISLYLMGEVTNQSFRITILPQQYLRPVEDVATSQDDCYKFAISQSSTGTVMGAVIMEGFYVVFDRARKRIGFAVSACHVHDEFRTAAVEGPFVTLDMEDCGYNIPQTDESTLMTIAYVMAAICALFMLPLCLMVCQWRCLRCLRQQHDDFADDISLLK

| SMILES | % Inhibition (FS) 0.3 μM (0.3 μM test compound) | % Inhibition (FS) 1 μM (1 μM test compound) | % Inhibition (FS) 3 μM (3 μM test compound) | % Inhibition (FS) (0.3 μM test compound) | % Inhibition (FS) (1 μM test compound) | % Inhibition (FS) (3 μM test compound) | also measured |
| --- | --- | --- | --- | --- | --- | --- | --- |
| Cc1cc(C(=O)NCCN2Cc3cc(-c4cccc(CO)c4)ccc3N=C2N)c(C)o1 [Compound 589] | <30% | <30% | <30% |  |  |  |  |
| CC(C)(C)OC(=O)NCc1cccc(CN2Cc3cc(Oc4ccccc4)ccc3N=C2N)c1 [Compound 315] | <30% | <30% | 33% |  |  |  |  |
| CC(=O)Nc1ccc(C(=O)NCCN2Cc3cc(-c4ccccc4)ccc3N=C2N)cc1 [Compound 591] | <30% | <30% | <30% |  |  |  |  |
| NC1=Nc2ccc(Oc3ccccc3)cc2CN1Cc1cccc(C(=O)NC2CCCCC2)c1 [Compound 451] | <30% | <30% | <30% |  |  |  |  |
| CN(C(=O)CC[C@@H](C1CCCCC1)N1Cc2ccc(Oc3ccccc3)cc2N=C1N)C1CCCCC1 [Compound 754] |  |  |  | 8% | 35% | 89% |  |
| NC1=Nc2ccc(Oc3ccccc3)cc2CN1CCCCNC(=O)C1CCCC1 [Compound 116] |  |  | 39% |  |  |  | % Inhibition (FS) 10 μM (10 μM test compound): 81% |
| CN(C(=O)CCC(C1CCCCC1)N1Cc2cc(Oc3ccccc3)ccc2N=C1N)C1CCC(C#N)CC1 (centres unmarked) [Compound 769] |  |  |  | <30% | 61% | 107% |  |
| NC1=Nc2ccc(-c3ccccc3F)cc2CN1CCNC(=O)CCC(F)(F)F [Compound 680] |  |  |  | 42% | 75% | 90% |  |
| CC(C)(C)C(=O)NCCN1Cc2cc(Br)ccc2N=C1N [Compound 809] |  |  |  |  |  |  | inhibition at 0.3 µM [1]: < 30%; inhibition at 1 µM [2]: < 30%; inhibition at 3 µM [3]: 32% |
| CN(C(=O)CCC(CO)N1Cc2cc(Oc3ccccc3)ccc2N=C1N)C1CCCCC1 (centres unmarked) [Compound 557] | <30% | <30% | <30% |  |  |  |  |
| CCCCc1ccc(C(=O)NCCN2Cc3cc(Oc4ccccc4)ccc3N=C2N)cc1 [Compound 157] |  |  | <30% |  |  |  | % Inhibition (FS) 10 μM (10 μM test compound): 50% |
| NC1=Nc2ccc(Oc3ccccc3)cc2CN1Cc1cccc(C(=O)O)c1 [Compound 805] |  |  |  |  |  |  | inhibition at 0.3 µM [1]: < 30%; inhibition at 1 µM [2]: < 30%; inhibition at 3 µM [3]: < 30% |
| CCCCCCCCC(CCC(=O)NC1CCCCCC1)N1Cc2cc(Oc3ccccc3)ccc2N=C1N (centres unmarked) [Compound 208] | <30% | <30% | 67% |  |  |  |  |
| NC1=Nc2ccc(C3=CCCC3)cc2CN1CCNC(=O)C1CCC(C(F)(F)F)CC1 (centres unmarked) [Compound 707] |  |  |  | <30% | <30% | <30% |  |
| CCCC=Cc1ccc2c(c1)CN(CCNC(=O)C(C)(C)C)C(N)=N2 [Compound 574] | <30% | <30% | <30% |  |  |  |  |
| NC1=Nc2ccc(-c3cnc4ccccc4c3)cc2CN1CCNC(=O)C12CC3CC(CC(C3)C1)C2 [Compound 672] |  |  |  | <30% | <30% | <30% |  |
| CN(C(=O)c1cccc(CN2Cc3cc(-c4ccccc4OCc4ccccc4)ccc3N=C2N)c1)C1CCCCC1 [Compound 327] | <30% | <30% | 48% |  |  |  |  |
| NC1=Nc2ccc(Oc3ccccc3)cc2CN1CCNC(=O)C1CC1c1ccccc1 (centres unmarked) [Compound 139] |  |  | <30% |  |  |  | % Inhibition (FS) 10 μM (10 μM test compound): 61% |
| CSc1ccccc1Oc1ccc2c(c1)CN(Cc1cccc(C(=O)N(C)C3CCCCC3)c1)C(N)=N2 [Compound 474] | <30% | <30% | <30% |  |  |  |  |
| CN(C(=O)c1ccc2c(c1)C(N1Cc3cc(Oc4ccccc4)ccc3N=C1N)c1ccccc1-2)C1CCCCC1 (centres unmarked) [Compound 125, 9-(2-Amino-6-phenoxy-4H-quinazolin-3-yl)-9H-fluorene-2-carboxylic acid cyclohexyl-methyl-amide] |  |  |  |  |  |  | inhibition at 3 µM (3 μM test compound, read-out: % Inhibition (FS) 3 μM): 42%; inhibition at 10 µM (10 μM test compound, read-out: % Inhibition (FS) 10 μM): 80% |
| COc1ccccc1-c1ccc2c(c1)CN([C@@H](CCC(=O)N(C)Cc1csc(-c3ccccc3)n1)C1CCCCC1)C(N)=N2 [Compound 716] |  |  |  | <30% | <30% | 72% |  |
| NC1=Nc2ccc(-c3ccncc3)cc2CN1CCNC(=O)C1CCCCC1 [Compound 576] | <30% | <30% | <30% |  |  |  |  |
| CC(=O)N1CCC(C(=O)NCCN2Cc3cc(-c4ccccc4Cl)ccc3N=C2N)CC1 [Compound 691] |  |  |  | <30% | <30% | 51% |  |

Source: US8383637B2, “2-amino-quinazoline derivatives useful as inhibitors of β-secretase (BACE)” (Jansssen Pharmaceutica N.V., priority 2004, dated 2013)
